Source: PubChem BioAssay AID1919002 (Molecular Pharmacology Branch, DTP, NCI, 2023)

Tested on: 743489-274-T-PDC complex spheroid growth
Assay: Anticancer human tumor 743489-274-T-PDC patient-derived renal cell carcinoma cell line growth inhibition [AhR]
Details: for IC50: curve of first compound; for viability, T/C: stronger effect = lower value
Procedure, shortened: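 Agents were dosed in half-log steps down from roughly clinical Cmax, or from 10 microM where Cmax was unknown, alone and with AhR antagonists. Read-out: percent test/control growth of tumor spheroids containing HUVEC and MSC stromal cells.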
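Also: spheroids exposed to agents for 7 days before readout.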
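For viability, T/C in this document: 100% = DMSO vehicle control wells.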

Compound: Nc1ncn(C2CC(O)C(CO)S2)c(=O)n1 (stereo not given) + Cc1cncc(-c2nc(NCCc3c[nH]c4ccccc34)c3ncn(C(C)C)c3n2)c1
- IC50 (second compound 0.1 µM): > 300 nM
- IC50 (second compound 0.316 µM): > 300 nM
- IC50 (second compound 1 µM): > 300 nM
- IC50 (second compound 3.16 µM): > 300 nM
- IC50 (second compound 10 µM): > 300 nM
- viability, T/C (second compound 0.1 µM, first compound 0.000949 µM): 107%
- viability, T/C (second compound 0.1 µM, first compound 0.003 µM): 105%
- viability, T/C (second compound 0.1 µM, first compound 0.00949 µM): 104%
- viability, T/C (second compound 0.1 µM, first compound 0.03 µM): 95.8%
- viability, T/C (second compound 0.1 µM, first compound 0.0949 µM): 96.5%
- viability, T/C (second compound 0.1 µM, first compound 0.3 µM): 93.1%
- viability, T/C (second compound 0.316 µM, first compound 0.000949 µM): 96.6%
- viability, T/C (second compound 0.316 µM, first compound 0.003 µM): 99.8%
- viability, T/C (second compound 0.316 µM, first compound 0.00949 µM): 104%
- viability, T/C (second compound 0.316 µM, first compound 0.03 µM): 98.3%
- viability, T/C (second compound 0.316 µM, first compound 0.0949 µM): 84.7%
- viability, T/C (second compound 0.316 µM, first compound 0.3 µM): 101%
- viability, T/C (second compound 1 µM, first compound 0.000949 µM): 108%
- viability, T/C (second compound 1 µM, first compound 0.003 µM): 100%
- viability, T/C (second compound 1 µM, first compound 0.00949 µM): 106%
- viability, T/C (second compound 1 µM, first compound 0.03 µM): 106%
- viability, T/C (second compound 1 µM, first compound 0.0949 µM): 98.8%
- viability, T/C (second compound 1 µM, first compound 0.3 µM): 103%
- viability, T/C (second compound 3.16 µM, first compound 0.000949 µM): 114%
- viability, T/C (second compound 3.16 µM, first compound 0.003 µM): 106%
- viability, T/C (second compound 3.16 µM, first compound 0.00949 µM): 119%
- viability, T/C (second compound 3.16 µM, first compound 0.03 µM): 118%
- viability, T/C (second compound 3.16 µM, first compound 0.0949 µM): 109%
- viability, T/C (second compound 3.16 µM, first compound 0.3 µM): 96.2%
- viability, T/C (second compound 10 µM, first compound 0.000949 µM): 138%
- viability, T/C (second compound 10 µM, first compound 0.003 µM): 115%
- viability, T/C (second compound 10 µM, first compound 0.00949 µM): 117%
- viability, T/C (second compound 10 µM, first compound 0.03 µM): 124%
- viability, T/C (second compound 10 µM, first compound 0.0949 µM): 112%
- viability, T/C (second compound 10 µM, first compound 0.3 µM): 125%
